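Compound exposure: 48 hours, 5 concentrations, 96-well plates. At the GI50, growth is halved. TGI: concentration producing complete growth inhibition.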
System: MDA-MB-468 breast
Assay: NCI tumour cell line growth inhibition, 48 h

COc1ccc(C(=O)c2sc3nc4c(cc3c2N)CCCC4)cc1OC
GI50: 2.46 µM | TGI: 23.6 µM

c1ccc(-c2n(Cc3ccc4ccccc4c3)c3c4ccccc4c4ccccc4c3[n+]2Cc2ccc3ccccc3c2)cc1
GI50: 0.23 µM | TGI: 0.845 µM

Clc1ccc(Cn2c(CN3CCCC3)nc3ccccc32)cc1
GI50: 13.4 µM | TGI: 34.2 µM

COc1ccc(C2C=C(c3ccc(OC)c(OC)c3)N=C3SC=CN32)c(Br)c1 (stereo unspecified)
GI50: 1.88 µM | TGI: 3.91 µM

CC(=O)c1c(Nc2cccc(F)c2)[nH]c2c(Cl)cc(Cl)c(Cl)c2c1=O
GI50: 0.317 µM | TGI: 1.35 µM

Nc1c(C(=O)c2cccc(OC[C@@H](O)CO)c2)cnn1-c1ccc(F)cc1
GI50: > 25 µM | TGI: > 25 µM

COc1cc(/C=C/C(=O)c2ccccc2)cc(OC)c1OC
GI50: 2.3 µM | TGI: 8.32 µM

COc1cc(OC)c(/C=C/c2cc[n+](C)c3ccccc23)c(OC)c1
GI50: 0.36 µM | TGI: 5.01 µM

O=C(OCC1OC(n2cc(C(F)(F)F)c(=O)[nH]c2=O)CC1OC(=O)c1ccc([N+](=O)[O-])cc1)c1ccc([N+](=O)[O-])cc1 (stereo unspecified)
GI50: 28 µM | TGI: > 100 µM

COc1cc(-c2nn(-c3cccc(NC(=O)Nc4cccc(C(F)(F)F)c4)c3)cc2-c2ccncc2)ccc1Cl
GI50: 0.369 µM | TGI: 2.09 µM

COc1cc(C2CC(c3cccc(Nc4ccncc4)c3)=NN2c2ccccc2)cc(OC)c1OC (stereo unspecified)
GI50: 1.49 µM | TGI: 2.95 µM

Cc1cc(Cl)ccc1OCc1nn2c(CCCCc3nnc4sc(COc5ccc(Cl)cc5C)nn34)nnc2s1
GI50: 8.42 µM | TGI: 81.2 µM

C#CC[C@@H]1C[C@]2(C)[C@H]3CC[C@@H]4[C@H]5C(C(=C)C)CC[C@]5(C(=O)NCCCCN)CC[C@@]4(C)[C@]3(C)CC[C@H]2C(C)(C)[C@H]1OC(C)=O (stereo partly specified)
GI50: 1.78 µM | TGI: 3.59 µM

CC(=O)N1CCC(Nc2ncc3cc(Oc4ccc(F)cc4F)c(=O)n(C)c3n2)CC1
GI50: > 25 µM | TGI: > 25 µM

O=C1OCC2=C1C(c1ccc3c(c1)OCO3)c1cc3c(cc1O2)OCO3 (stereo unspecified)
GI50: 0.938 µM | TGI: > 100 µM

Cn1c(-c2ccncc2)c(-c2ccc(F)cc2)c2ncccc21
GI50: > 22.7 µM | TGI: > 25 µM

O=C(Nc1ccc(Cl)cc1)Nc1ccc(Cl)c(C(F)(F)F)c1
GI50: 1.67 µM | TGI: 4.8 µM

CC(C)Oc1ccc(-c2nn([C@@H](C)c3oc4ccc(F)cc4c(=O)c3-c3cccc(F)c3)c3ncnc(N)c23)cc1F
GI50: 37.1 µM | TGI: > 100 µM

O=C1/C=C/[C@@H](O)[C@@H]2C[C@@H](O)C[C@H]2/C=C/CCC[C@H](CCc2ccccc2)O1
GI50: < 0.01 µM | TGI: 0.0251 µM

Cc1nc2cc(-c3nn(C(C)C)c4ncnc(N)c34)ccc2o1
GI50: 0.00863 µM | TGI: 0.101 µM

O=c1ccccc(-c2ccc(Br)cc2)c1O
GI50: 0.257 µM | TGI: 2.32 µM

[2H]c1nc(C)nc([2H])c1-c1cc(NC[C@@H](C)c2cccc3c(C(=O)NC)ccnc23)ncn1
GI50: 56 µM | TGI: > 100 µM

O=C1C=CC2(O)OC/C(=C\c3ccccc3)C(O)=C2C1=O (stereo unspecified)
GI50: 1.62 µM | TGI: 3.23 µM

O=c1ncc(I)cn1C1CC(O)C(CO)O1 (stereo unspecified)
GI50: 935 µM | TGI: 2980 µM

COc1ccc(C(=S)N(C)NC(=O)CC(=O)NN(C)C(=S)c2ccc(OC)cc2)cc1
GI50: 48.7 µM | TGI: > 100 µM

COc1ccc(/C=C2\COc3ccc(O)c(O)c3C2=O)cc1
GI50: 1.24 µM | TGI: 3.94 µM

COc1cccc2c1O/C(=C\c1ncc([N+](=O)[O-])n1C)C2=O
GI50: 1.59 µM | TGI: 4.3 µM

Nc1nc2cc(O)ccc2n2cc3c(F)cccc3c12
GI50: 2.66 µM | TGI: > 100 µM

CCN(CC)CC(O)CNc1c2ccc(Cl)cc2nc2ccc(OC)cc12 (stereo unspecified)
GI50: 0.666 µM | TGI: 2.18 µM

c1ccc(CC(Cc2ccccc2)C2=NCCCN2)cc1
GI50: 2.92 µM | TGI: > 100 µM

Cc1oc2c(C(=O)N/N=C\c3ccc(O)cc3O)c[nH]c2c1C
GI50: 1.96 µM | TGI: 18.3 µM

CN(C)CCONC(=O)C12CC3CC(CC(C3)C1)C2
GI50: > 100 µM | TGI: > 100 µM

Cc1ccc(C2=NN(c3ccc(S(C)(=O)=O)cc3)C(=O)CC2)cc1
GI50: 1.23 µM | TGI: 4.86 µM

CC(C)N(CCCNC(=O)Nc1ccc(C(C)(C)C)cc1)C[C@H]1O[C@@H](n2ccc3c(N)ncnc32)[C@H](O)[C@@H]1O
GI50: > 100 µM | TGI: > 100 µM

Cc1cc(=O)n2nnc3c4ccccc4ccc3n12
GI50: 1.75 µM | TGI: 4.82 µM

Cc1ccc(CN(C)c2ccc(CO)c(Cl)c2)cc1
GI50: 0.0389 µM | TGI: 0.166 µM

C[CH2][Pb]([CH2]C)([CH2]C)[O]C(=O)COC
GI50: 0.201 µM | TGI: 0.71 µM

O=C(O)c1ccc(NCc2nc3cc(Cl)c(Cl)cc3[nH]2)cc1
GI50: 62 µM | TGI: > 100 µM

COC(=O)/C=C1/SC(=Nc2ccc(F)cc2)N(CCc2c[nH]c3ccc(O)cc23)C1=O
GI50: 3.03 µM | TGI: 23.6 µM

Nc1c(C(=O)Nc2cccc(C(F)(F)F)c2)sc2nc3c(cc12)C(O)CCC3 (stereo unspecified)
GI50: 1.69 µM | TGI: > 62.1 µM

CC(=O)Oc1cc(C(C)C)c(OCCN(C)C)cc1C
GI50: > 100 µM | TGI: > 100 µM

CC1(C)CC[C@]2(C(=O)Nc3ccccn3)CC[C@]3(C)C(=CC[C@@H]4[C@@]5(C)C/C(=C/c6ccncc6)C(=O)C(C)(C)[C@@H]5CC[C@]43C)[C@@H]2C1
GI50: 2.12 µM | TGI: > 100 µM

Cc1cc2cn3c4ccc(O)cc4nc(N)c3c2cc1C
GI50: 0.222 µM | TGI: 0.626 µM

CCc1ccc(C(=O)/C=C/C23c4ccccc4C(c4ccccc42)C2C(=O)NC(=O)C23)cc1 (stereo unspecified)
GI50: 1.79 µM | TGI: 4.13 µM

COc1ccc(-c2ccc(-c3ccc(C(=N)N)c(F)c3)s2)cc1
GI50: 0.373 µM | TGI: 1.21 µM

CCc1cccc2c3c(sc12)C(c1ccc(F)cc1)C(C#N)=C(/N=C/c1ccc(Cl)cc1)O3 (stereo unspecified)
GI50: 0.248 µM | TGI: 0.812 µM

CNCCCNc1nc2ccccc2c2c(=O)c3cc(F)ccc3sc12
GI50: 1.18 µM | TGI: 2.6 µM

COc1cc(/C=C2\C(=O)Nc3ccccc32)cc(OC)c1O
GI50: 1.57 µM | TGI: 7.67 µM
